Data published in publication PMC8691750, “Euphorbia Factor L2 ameliorates the Progression of K/BxN Serum-Induced Arthritis by Blocking TLR7 Mediated IRAK4/IKKβ/IRF5 and NF-kB Signaling Pathways” (Frontiers in Pharmacology, 2021).

How the values were obtained:
[1] = test system: lung cancer cell line A549; set-up: method as in Lin et al., 2017; settings: in vitro, dose-dependent; ref Lin et al., 2017; cited from earlier work
[2] = test system: TLR7 (R837) / TLR3 (poly:IC) induced cytokine production in RAW264.7 cells; test: ELISA of IL-1β and IL-6 in supernatant of R837 and/or poly:IC stimulated RAW264.7 cells; type: cell-based, mouse
Method: (§1) RAW264.7 cells (5×10^5/ml), BMDMs (5×10^5/ml) and PBMCs (2×10^6/ml) were plated in 96-well plates and incubated overnight. […] For the anti-inflammatory molecular mechanism study, RAW264.7 cells (5×10^5/ml) were plated in 96-well plates and stimulated with R837 (20 μg/ml) with or without the addition of NF-κB inhibitor (JSH-23, […]) for 24 h. After 24 h, the culture supernatant was collected for cytokines measurements.
(§2) IL-4, IL-17A and TNF-α in sera from different group mice were measured using CBA Multiplex kit (BD, United States). The concentrations of IL-1β and IL-6 in serum or supernatant were detected by ELISA Kit (MULTI SCIENCES, China) according to the manufacturers’ instructions.

[3] = test system: TNF-α, IL-4, IL-17A, IL-1β and IL-6 in serum; test: Cytokines in sera of STA mice (CBA Multiplex kit, ELISA); type: in vivo, C57BL/6 mice
Method: K/BxN serum was collected from K/BxN mice at 8 weeks of age, pooled, aliquoted and stored at -20 °C. K/BxN serum-transfer arthritis (STA) model was induced by intraperitoneal (i.p.) application of 150 μL of serum at day 0. Clinical score for arthritis severity was assessed using a 0–4 point scale for each paw at various time points (0–16 total score) as described previously ([Luo et al., 2011]). 8-week old male C57BL/6 mice were purchased from Dashuo Animal Center (China, Chengdu), maintained at 25°C, and exposed to 12-h light and dark cycles. Mice were fed with standard laboratory chow and water with 1 week of acclimatization. Naive mice were used as the control group. Except the control mice, all mice were i. p. injected with 150 μL of serum, then randomly divided into the following groups and treated with different compounds daily for the consecutive 8 days: 1) STA group; 2) Solvent control group, mice were gavaged with the solvent; 3) Dexamethasone (DEX) group, mice were gavaged with 30 mg/kg DEX; 4) EFL2 group 1, mice were gavaged with 40 mg/kg EFL2; 5) EFL2 group 2, mice were intraperitoneally injected with 15 mg/kg EFL2; 6) EFL2 group 3, […] were intraperitoneally injected with 40 mg/kg EFL2. […] All animal experiments were conducted in accordance with ethical regulation for animal care and use in China.
as §2

[4] = test system: TLR7 (R837) / TLR3 (poly:IC) induced cytokine production in BMDMs; test: ELISA of IL-1β and IL-6 in supernatant of R837 and/or poly:IC stimulated BMDMs; type: cell-based, C57BL/6 mice
Method: RAW264.7 cells, a mouse macrophage cell line, were cultured in DMEM medium containing 10% fetal bovine serum (FBS), 1% penicillin-streptomycin and maintained at 37 °C in 5% CO2 humidified air. Bone marrow-derived macrophages (BMDMs) generation was performed as following description. In brief, bone marrow cells were harvested from tibias and femurs of C57BL/6 mice and differentiated for 7 days in DMEM medium supplemented with 10% FBS, 1% penicillin-streptomycin and 50 ng/ml M-CSF. For human peripheral blood mononuclear cells (PBMCs) preparation, 5 ml peripheral venous blood was obtained from healthy donors in West China Hospital. PBMCs were isolated with Human Lymphocyte Separation Medium (LTS1077, Tian Jing, China) according to the manufacturer’s instructions. The experimental protocols were performed according to the approved guidelines established by the Institutional Human Research Subject Protection Committee of the Ethics Committee of West China Hospital, Sichuan University, China.
as §1, §2

LPS-induced lung injury = test system: LPS-induced lung injury; set-up: method as in Zhang et al., 2018; settings: mice; ref Zhang et al., 2018; cited from earlier work
[5] = test system: TLR7-mediated IRAK4/IKKβ/IRF5 signaling pathway; test: Western blot, IRAK4/IKKβ/IRF5 in R837-stimulated RAW264.7 cells; type: cell-based, mouse; settings: R837-stimulated RAW264.7
Method: RAW264.7 cells (2×10^6 cells/well) were plated into 6-well plates and then incubated at 37°C in 5% CO2 for 24 h. After incubated with various concentrations of EFL2 (1, 5 and 10 µM) for 1 h, cells were then stimulated by R837 (20 μg/ml) for 30 min. Cell lysates were prepared by direct lysis in 20 µL IP buffer (Beyotime Biotechnology, Shanghai, China). After obtaining the whole cell extracts, the cytosolic and nuclear were seperated using Nuclear and Cytoplasmic Protein Extraction Kit (Beyotime Biotechnology, Shanghai, China). BCA Protein Assay Kit (Beyotime Biotechnology, Nantong, China) was applied to determine the protein concentrations. The bands corresponding to p- IKKα/β, IKKα/β, p-IκBα, IκBα, p-p65, p65, p-IRAK4, IRAK4, p-IKKβ, IKKβ, p-IRF5, IRF5, β-actin and Lamin B were visualized using a Western Blot Detection Chemiluminescence Kit (Merck). Protein extracted from the total lysates/cytoplasm and nucleus was quantified in relation to β-actin and Lamin B bands, respectively.
The antibodies used in the experiments were as follows: rabbit anti-mouse IKKα/β polyclonal antibody (1:1,000, Abways, China), rabbit anti-mouse IκBα polyclonal antibody (1:1,000, Abgent, China), rabbit anti-mouse p65 polyclonal antibody (1:1,000, Abgent, China), rabbit anti-mouse phosphorylated IKKα (Ser176)/β (Ser177) (1:1,000, Abways, China), rabbit anti-mouse phosphorylated IκBα (1:1,000, Abcam, United States), rabbit anti-mouse phosphorylated p65 (1:1,000, Abcam, United States), rabbit anti-mouse IRAK4 polyclonal antibody (1:1,000, Proteintech, United States), rabbit anti-mouse phosphorylated IRAK4 (Thr345/Ser346) (1:1,000, Affinity, United States), rabbit anti-mouse IKKβ polyclonal antibody (1:1,000, Abbkine, United States), rabbit anti-mouse phosphorylated IKKβ (Ser177) (1:1,000, Abways, China), rabbit anti-mouse IRF5 polyclonal antibody (1:1,000, Immunoway, United States), rabbit anti-mouse phosphorylated IRF5 (Ser437) (1:1,000, Affinity, United States), anti-mouse actin monoclonal antibody (1:20,000, Transgen, China) and rabbit anti-mouse LaminB monoclonal antibody (1:5,000, Abways, China).

**Q.** Which results are given for `C=C1C(OC(=O)c2ccccc2)CC2C(C=C(C)C(=O)C3(OC(C)=O)CC(C)C(OC(=O)c4ccccc4)C3C1OC(C)=O)C2(C)C` (centres unmarked) [EFL2, Euphorbia factor L2]?
**A.** apoptosis of A549 cells [1]: induced the apoptosis; inhibitory ability on IL-1β and IL-6 production compared to JSH-23 ([2]; R837-stimulated RAW264.7, EFL2 10 μM): stronger inhibitory ability; IL-6 production ([2]; R837-stimulated RAW264.7, EFL2 0.1-10 μM): dose-dependently reduced; IL-1β secretion ([2]; R837-stimulated RAW264.7, EFL2 at 0.1 μM): effectively inhibit; levels of IL-1β and IL-6 in the supernatant ([2]; RAW264.7 co-stimulated by poly (I:C) and R837, various concentrations of EFL2): to different expent decreased; IL-6 level in sera ([3]; STA mice, EFL2 15 mg/kg i.p., day 8): only effectively inhibited; IL-1β level in sera ([3]; STA mice, EFL2 40 mg/kg i.p.): significantly reduced; IL-6 level in sera ([3]; STA mice, EFL2 40 mg/kg i.p.): significantly reduced; TNF-α, IL-4 and IL-17A levels in blood (other cytokines) ([3]; control, STA and STA mice treated with DEX or EFL2): did not affect; levels of IL-1β and IL-6 in the supernatant ([4]; BMDMs co-stimulated by poly (I:C) and R837, various concentrations of EFL2): to different expent decreased; IL-6 production ([4]; R837-stimulated BMDMs, EFL2 0.1-10 μM): dose-dependently reduced; IL-1β secretion ([4]; R837-stimulated BMDMs, EFL2 at 0.1 μM): effectively inhibit; effect on LPS-induced lung injury (LPS-induced lung injury): robust improving effect; IRF5 translocation (cytoplasm to nucleus) ([5]; EFL2 at 5 and 10 μM, also immunofluorescence): effectively blocked; phosphorylation of IKKβ ([5]; EFL2 pretreatment 1, 5, 10 μM): significantly suppressed; phosphorylation of IRAK4 ([5]; EFL2 pretreatment 1, 5, 10 μM): significantly suppressed; phosphorylation of IRF5 ([5]; EFL2 pretreatment 1, 5, 10 μM): significantly suppressed
